Measurements reported in ChEMBL document CHEMBL2346657, “Synthesis of novel 2-amino-4-(5'-substituted 2'-phenyl-1H-indol-3'-yl)-6-aryl-4H-pyran-3-carbonitrile derivatives as antimicrobial and antioxidant agents” (2013).
Calls of active or inactive are those of the source. Unless noted, the rule behind the calls is not given here.

How the values were obtained:
Assay type in all cases: functional
[1] = system: Aspergillus niger; test: Antimicrobial activity against Aspergillus niger MTCC 281 at 750 ug/ml after 72 hrs by cup plate method; conditions: MTCC 281, 72 h, read-out: IZ
[2] = system: Aspergillus oryzae; test: Antimicrobial activity against Aspergillus oryzae MTCC 3567 at 500 ug/ml after 72 hrs by cup plate method; conditions: MTCC 3567, 72 h, read-out: IZ
[3] = system: Klebsiella pneumoniae; test: Antimicrobial activity against Klebsiella pneumoniae NCTC 13368 at 500 ug/ml after 24 hrs by cup plate method; conditions: NCTC 13368, 24 h, read-out: IZ
[4] = system: Pseudomonas aeruginosa; test: Antimicrobial activity against Pseudomonas aeruginosa MTCC 1688 at 1000 ug/ml after 24 hrs by cup plate method; conditions: MTCC 1688, 24 h, read-out: IZ
[5] = system: Aspergillus terreus; test: Antimicrobial activity against Aspergillus terreus MTCC 1782 at 1000 ug/ml after 72 hrs by cup plate method; conditions: MTCC 1782, 72 h, read-out: IZ
[6] = system: Staphylococcus aureus; test: Antimicrobial activity against Staphylococcus aureus ATCC 29513 at 750 ug/ml after 24 hrs by cup plate method; conditions: ATCC 29513, 24 h, read-out: IZ
[7] = system: Staphylococcus aureus; test: Antimicrobial activity against Staphylococcus aureus ATCC 29513 at 1000 ug/ml after 24 hrs by cup plate method; conditions: ATCC 29513, 24 h, read-out: IZ
[8] = Antioxidant activity assessed as metal chelating activity by measuring inhibition of ferrozine-Fe2+ complex formation at 100 ug/ml; set-up: scale not given: the % may be the effect or the level left
[9] = Antioxidant activity assessed as ferric ion reducing activity at 75 ug/ml by FRAP assay
[10] = system: Escherichia coli; test: Antimicrobial activity against Escherichia coli MTCC 723 at 1000 ug/ml after 24 hrs by cup plate method; conditions: MTCC 723, 24 h, read-out: IZ
[11] = system: Aspergillus niger; test: Antimicrobial activity against Aspergillus niger MTCC 281 at 500 ug/ml after 72 hrs by cup plate method; conditions: MTCC 281, 72 h, read-out: IZ
[12] = system: Aspergillus oryzae; test: Antimicrobial activity against Aspergillus oryzae MTCC 3567 at 750 ug/ml after 72 hrs by cup plate method; conditions: MTCC 3567, 72 h, read-out: IZ
[13] = system: Klebsiella pneumoniae; test: Antimicrobial activity against Klebsiella pneumoniae NCTC 13368 at 1000 ug/ml after 24 hrs by cup plate method; conditions: NCTC 13368, 24 h, read-out: IZ
[14] = system: Aspergillus flavus; test: Antimicrobial activity against Aspergillus flavus MTCC 1973 at 1000 ug/ml after 72 hrs by cup plate method; conditions: MTCC 1973, 72 h, read-out: IZ
[15] = system: Pseudomonas aeruginosa; test: Antimicrobial activity against Pseudomonas aeruginosa MTCC 1688 at 500 ug/ml after 24 hrs by cup plate method; conditions: MTCC 1688, 24 h, read-out: IZ
[16] = Antioxidant activity assessed as metal chelating activity by measuring inhibition of ferrozine-Fe2+ complex formation at 25 to 100 ug/ml
[17] = system: Aspergillus oryzae; test: Antimicrobial activity against Aspergillus oryzae MTCC 3567 at 1000 ug/ml after 72 hrs by cup plate method; conditions: MTCC 3567, 72 h, read-out: IZ
[18] = system: Aspergillus flavus; test: Antimicrobial activity against Aspergillus flavus MTCC 1973 at 750 ug/ml after 72 hrs by cup plate method; conditions: MTCC 1973, 72 h, read-out: IZ
[19] = system: Pseudomonas aeruginosa; test: Antimicrobial activity against Pseudomonas aeruginosa MTCC 1688 at 750 ug/ml after 24 hrs by cup plate method; conditions: MTCC 1688, 24 h, read-out: IZ
[20] = system: Staphylococcus aureus; test: Antimicrobial activity against Staphylococcus aureus ATCC 29513 at 500 ug/ml after 24 hrs by cup plate method; conditions: ATCC 29513, 24 h, read-out: IZ
[21] = system: Klebsiella pneumoniae; test: Antimicrobial activity against Klebsiella pneumoniae NCTC 13368 at 750 ug/ml after 24 hrs by cup plate method; conditions: NCTC 13368, 24 h, read-out: IZ
[22] = system: Escherichia coli; test: Antimicrobial activity against Escherichia coli MTCC 723 at 500 ug/ml after 24 hrs by cup plate method; conditions: MTCC 723, 24 h, read-out: IZ
[23] = system: Aspergillus flavus; test: Antimicrobial activity against Aspergillus flavus MTCC 1973 at 500 ug/ml after 72 hrs by cup plate method; conditions: MTCC 1973, 72 h, read-out: IZ
[24] = system: Aspergillus terreus; test: Antimicrobial activity against Aspergillus terreus MTCC 1782 at 500 ug/ml after 72 hrs by cup plate method; conditions: MTCC 1782, 72 h, read-out: IZ
[25] = system: Escherichia coli; test: Antimicrobial activity against Escherichia coli MTCC 723 at 750 ug/ml after 24 hrs by cup plate method; conditions: MTCC 723, 24 h, read-out: IZ
[26] = system: Aspergillus niger; test: Antimicrobial activity against Aspergillus niger MTCC 281 at 1000 ug/ml after 72 hrs by cup plate method; conditions: MTCC 281, 72 h, read-out: IZ
[27] = system: Aspergillus terreus; test: Antimicrobial activity against Aspergillus terreus MTCC 1782 at 750 ug/ml after 72 hrs by cup plate method; conditions: MTCC 1782, 72 h, read-out: IZ

N#Cc1c(N)c2c(N)c3c(nc2oc1=O)OC(c1ccc(Cl)cc1)=CC3c1c(-c2ccccc2)[nH]c2ccc(Cl)cc12 (configuration not stated)
zone of inhibition at 750 µg/mL [1]: 8 mm | zone of inhibition at 500 µg/mL [2]: 9 mm | zone of inhibition at 500 µg/mL [3]: 13 mm | zone of inhibition at 1000 µg/mL [4]: 3 mm | zone of inhibition at 1000 µg/mL [5]: 13 mm | zone of inhibition at 750 µg/mL [6]: 12 mm | zone of inhibition at 1000 µg/mL [7]: 10 mm | Activity [8]: 79.7% | Activity [9]: Active | zone of inhibition at 1000 µg/mL [10]: 14 mm | zone of inhibition at 500 µg/mL [11]: 8 mm | zone of inhibition at 750 µg/mL [12]: 3 mm | zone of inhibition at 1000 µg/mL [13]: 13 mm | zone of inhibition at 1000 µg/mL [14]: 8 mm | zone of inhibition at 500 µg/mL [15]: 9 mm | Activity [16]: Active | zone of inhibition at 1000 µg/mL [17]: 3 mm | zone of inhibition at 750 µg/mL [18]: 9 mm | zone of inhibition at 750 µg/mL [19]: 8 mm | zone of inhibition at 500 µg/mL [20]: 12 mm | zone of inhibition at 750 µg/mL [21]: 13 mm | zone of inhibition at 500 µg/mL [22]: 11 mm | zone of inhibition at 500 µg/mL [23]: 10 mm | zone of inhibition at 500 µg/mL [24]: 12 mm | zone of inhibition at 750 µg/mL [25]: 12 mm | zone of inhibition at 1000 µg/mL [26]: 10 mm | zone of inhibition at 750 µg/mL [27]: 13 mm
